In ChEMBL document CHEMBL3044920, “Progress in understanding molecular mechanisms and evolution of resistance to succinate dehydrogenase inhibiting (SDHI) fungicides in phytopathogenic fungi” (Crop Prot, 2010):

Experiments:
Alternaria alternata [1] = experiment: Antifungal activity against boscalid-resistant Alternaria alternata expressing AaSDHD H133R mutant assessed as inhibition of mycelial growth at 10 ppm relative to untreated control; format: functional
Alternaria alternata [2] = experiment: Antifungal activity against boscalid-resistant Alternaria alternata expressing AaSDHC H134R mutant assessed as inhibition of mycelial growth at 10 ppm relative to untreated control; format: functional
Alternaria alternata [3] = experiment: Antifungal activity against boscalid-resistant Alternaria alternata expressing AaSDHB H277Y mutant assessed as inhibition of mycelial growth at 10 ppm relative to untreated control; format: functional
Alternaria alternata [4] = experiment: Antifungal activity against wild type Alternaria alternata assessed as inhibition of mycelial growth at 10 ppm relative to untreated control; format: functional
Alternaria alternata [5] = experiment: Antifungal activity against boscalid-resistant Alternaria alternata isolate Aa122 expressing AaSDHC H134R mutant; format: functional, organism-based
Alternaria alternata [6] = experiment: Antifungal activity against boscalid-resistant Alternaria alternata isolate Aa111 expressing AaSDHB H277Y mutant; format: functional, organism-based
Alternaria alternata [7] = experiment: Antifungal activity against boscalid-resistant Alternaria alternata isolate Aa29 expressing AaSDHB H277Y mutant; format: functional, organism-based
Alternaria alternata [8] = experiment: Antifungal activity against wild type Alternaria alternata isolate Aa16; format: functional, organism-based
Botrytis cinerea = experiment: Antifungal activity against resistant Botryotinia fuckeliana isolates obtained from excessive treatment with Signum; format: functional, organism-based

Work on `CC(C)CC(C)c1sccc1NC(=O)c1cn(C)nc1C(F)(F)F` (racemic) [PENTHIOPYRAD] yielded an inhibition at 10 ppm (Alternaria alternata [1]) of 88.7%, an inhibition at 10 ppm (Alternaria alternata [2]) of 85.1% and an inhibition at 10 ppm (Alternaria alternata [3]) of 90.5%. It also gave an inhibition at 10 ppm (Alternaria alternata [4]) of 89.7%.
In the case of `O=C(Nc1ccccc1-c1ccc(Cl)cc1)c1cccnc1Cl` [BOSCALID], the EC50 (Alternaria alternata [5]) was greater than 50 ppm, the EC50 (Alternaria alternata [6]) was greater than 50 ppm and the EC50 (Alternaria alternata [7]) was greater than 50 ppm. For the same compound, the EC50 (Alternaria alternata [8]) was 0.5 ppm, the inhibition at 10 ppm (Alternaria alternata [1]) was 47.5% and the inhibition at 10 ppm (Alternaria alternata [2]) was 31.9%. The inhibition at 10 ppm (Alternaria alternata [3]) was 30.7%, the inhibition at 10 ppm (Alternaria alternata [4]) was 87.2% and the EC50 (Botrytis cinerea) was greater than 100 ppm.
`O=C(NCCc1ncc(C(F)(F)F)cc1Cl)c1ccccc1C(F)(F)F` [FLUOPYRAM] showed an EC50 (Alternaria alternata [5]) of 5 ppm, an EC50 (Alternaria alternata [6]) of 0.25 ppm and an EC50 (Alternaria alternata [7]) of 0.25 ppm. It also gave an EC50 (Alternaria alternata [8]) of less than 0.25 ppm, an inhibition at 10 ppm (Alternaria alternata [1]) of 16.9% and an inhibition at 10 ppm (Alternaria alternata [2]) of 11.3%. For the same compound, the inhibition at 10 ppm (Alternaria alternata [3]) was 41.3% and the inhibition at 10 ppm (Alternaria alternata [4]) was 83%.
